The values below come from patent US20060223846A1, “Aza-bridged-bicyclic amino acid derivatives as alpha4 integrin antagonists” (priority 2005, published 2006).

The subject of this assay is α4β7 integrin-positive cells. Description: Intraperitoneal Delayed Type Hypersensitivity (IP-DTH) Response, ovalbumin challenge. It counts as in vivo. To be noted: 80 mg/kg, sc, qd × 2; mice, 48 hours after antigen challenge. The text has this: Intraperitoneal Delayed Type Hypersensitivity (IP-DTH) Response. A Method for Analyzing Effects of Integrin Antagonists In Vivo
Background: Integrin antagonists are meant to interfere with the binding or adhesion of immune cells, such as lymphocytes, monocytes and eosinophils that bear integrin receptors to counter-receptors that exist on endothelial cells in the vasculature. Among those integrin-bearing cells, cells that are positive for α4β7 integrin are found in the mesenteric system and in the gut, and would comprise many of the cells recruited to a peritoneal antigen challenge. One can maximize the number of α4β7 integrin-positive cells recruited by inducing an intraperitoneal delayed type hypersensitivity response to antigen that will recruite antigen-responsive cells from the mesenteric lymph nodes. An inhibitor of α4β7 integrin should prevent the recruitment of these cells to the site of antigen challenge. […]
The cells were stained with fluorochrome-coupled antibody to α4β7 integrin or a primary antibody to α4β7 integrin followed by a secondary fluorochrome-coupled antibody. […] The cells were then transferred to test tubes and maintained at 4° C. until analyzed by flow cytometry to determine numbers of α4β7-postive cells. […]

As to `CC(C)(C)CCN1C2CCC(CC2)[C@H]1C(=O)N[C@@H](Cc1ccc(NC(=O)c2c(Cl)cncc2Cl)cc1)C(=O)O` [Cpd 16, 3-{4-[(3,5-dichloro-pyridine-4-carbonyl)-amino]-phenyl}-2-{[2-(3,3-dimethyl-butyl)-2-aza-bicyclo[2.2.2]octane-3-carbonyl]-amino}-propionic acid], the “Percent Decrease in recruited α4β7+ cells” value is recorded as 56%.
For `O=C(Nc1ccc(CC(NC(=O)C2C3CCC(CC3)N2C(=O)Cc2ccsc2)C(=O)O)cc1)c1c(Cl)cncc1Cl` (centres unmarked) [Cpd 3] the value was 20%.
